Data set [1] can be described thus: logP by HPLC on reversed-phase columns (C 18), EEC Directive 79/831 Annex V.A8. It counts as physicochemical. Here is the method:
Calibration is carried out using unbranched alkan-2-ones (having from 3 to 16 carbon atoms) with known log P values (the log P values are determined by the retention times using linear interpolation between two successive alkanones).

Data set [2] concerns greenhouse red spider mite (Tetranychus urticae). Briefly: Tetranychus urticae spray test, OP-resistant (TETRUR), bean leaf disks. It counts as in vivo. As to conditions: Tetranychus urticae, foliar, 144 h, application rate 500 g/ha, after 6 days; read-out: efficacy (spider mites killed). Here is the method: After 6 days, the effect in % is determined.
The mark [3] stands for this setting: [a] LC-MS, acidic range, pH 2.7, 0.1% aqueous formic acid/acetonitrile, read-out: logP(HCOOH).
Setting [4] is: [b] LC-MS, neutral range, pH 7.8, 0.001 molar aqueous ammonium bicarbonate/acetonitrile, read-out: logP(neutral).
[5] abbreviates: reversed-phase C18 HPLC column, pH 2.7, [a] LC-MS, acidic range, pH 2.7, 0.1% aqueous formic acid/acetonitrile, read-out: logP(HCOOH).
[6] abbreviates: reversed-phase C18 HPLC column, pH 7.8, [b] LC-MS, neutral range, pH 7.8, 0.001 molar aqueous ammonium bicarbonate/acetonitrile, read-out: logP(neutral).
Where [7] appears, read: [a] LC-MS, acidic range, pH 2.7, 0.1% aqueous formic acid/acetonitrile.

Like-named read-outs stand apart in the source and are kept apart here.

Consider `O=C(Nc1ccc(Br)cc1Br)C(F)(F)F` [VI-4, N-(2,4-Dibromophenyl)-2,2,2-trifluoroacetamide], for which the chromatographic logP in data set [1] (setting [3]) came out at 3.1; in data set [1] (setting [4]), 2.89.
As to `O=C(Nc1cc(SCC(F)(F)F)c(Br)cc1Cl)C(F)(F)F` [III-5, N-{4-Bromo-2-chloro-5-[(2,2,2-trifluoroethyl)sulfanyl]phenyl}-2,2,2-trifluoroacetamide], the chromatographic logP in data set [1] (setting [5]) stood at 3.78.
As to `O=C(Nc1ccc(F)cc1Cl)C(F)(F)F` [VI-5, N-(2-Chloro-4-fluorophenyl)-2,2,2-trifluoroacetamide], the chromatographic logP in data set [1] (setting [3]) was 2.46; in data set [1] (setting [4]) it was 2.31.
For `COc1ccccc1/C(=N\c1cc([S+]([O-])CC(F)(F)F)c(C)cc1F)N(C)C` (stereo not drawn) [Ib-161], the chromatographic logP in data set [1] (setting [5]) turned out to be 1.28; in data set [1] (setting [6]) it was 2.95.
`O=C(Nc1cc(SCC(F)(F)F)c(Br)cc1Br)C(F)(F)F` [III-6, N-{2,4-Dibromo-5-[(2,2,2-trifluoroethyl)sulfanyl]phenyl}-2,2,2-trifluoroacetamide]: in data set [1] (setting [5]), the chromatographic logP worked out at 3.81.
Turning to `Cc1cc(F)c(SCC(F)(F)F)cc1N=C(N(C)C)C(F)(F)F` [Ia-24], the “logP(HCOOH)” value in data set [1] (pH 2.7) was 4.53. The “logP(neutral)” value in data set [1] (pH 7.8) was 4.47.
Consider `COc1cc(C)c(SSc2cc(NC(C)=O)c(OC)cc2C)cc1NC(C)=O` [N,N′-[Disulfanediylbis(6-methoxy-4-methylbenzene-3,1-diyl)]diacetamide], for which the chromatographic logP in data set [1] (setting [5]) was determined as 2.73.
Take `Cc1cc(F)c(SSc2cc(NC(=O)C(F)(F)F)c(C)cc2F)cc1NC(=O)C(F)(F)F` [IV-2, N,N′-[Disulfanediylbis(4-fluoro-6-methylbenzene-3,1-diyl)]bis(2,2,2-trifluoroacetamide)]: the figures for the chromatographic logP in data set [1] (setting [5]) and in data set [1] (setting [6]) were 4 and 3.92, respectively.
As to `Cc1cc(F)c(NC(=S)NCC(F)(F)F)cc1[S+]([O-])CC(F)(F)F` (stereo not drawn), the “logP(HCOOH)” value in data set [1] (setting [7]) is 2.34. Moreover, in data set [1] ([b] LC-MS, neutral range, pH 7.8, 0.001 molar aqueous ammonium bicarbonate/acetonitrile), the “logP(neutral)” value was 2.30.
`Cc1cc(F)c(N=C2NCCS2)cc1[S+]([O-])CC(F)(F)F` (stereo not drawn) [2-Fluoro-4-methyl-N-[1,3-thiazolidin-2-ylidene]-5-[(2,2,2-trifluoroethyl)sulfinyl]aniline]: the chromatographic logP in data set [1] (setting [5]) worked out at 0.8.
As for `O=C(Nc1ccc(Br)cc1Cl)C(F)(F)F` [VI-3, N-(4-Bromo-2-chlorophenyl)-2,2,2-trifluoroacetamide], the chromatographic logP in data set [1] (setting [3]) is 3.01; in data set [1] (setting [4]) it was 2.81.
As to `Nc1cccc(SCC(F)(F)F)c1` [3-[(2,2,2-Trifluoroethyl)sulfanyl]aniline], the chromatographic logP in data set [1] (setting [5]) was found to be 2.01.
As to `Cc1cc(F)c(/N=C2\CCCN2c2ccccc2)cc1SCC(F)(F)F` [2-Fluoro-4-methyl-N-[(2E)-1-phenylpyrrolidin-2-ylidene]-5-[(2,2,2-trifluoroethyl)sulfanyl]aniline], the chromatographic logP is 1.83 in data set [1] (setting [5]) and 4.92 in data set [1] (setting [6]).
In the case of `Cc1cc(C)c(SCC(F)(F)F)cc1N=C1NCCO1` [2,4-Dimethyl-N-[1,3-oxazolidin-2-ylidene]-5-[(2,2,2-trifluoroethyl)sulfanyl]aniline], in data set [1] (pH 2.7, logP(HCOOH)), the chromatographic logP came out at 1.36.
With `O=C(Nc1ccc(Br)cc1F)C(F)(F)F` [VI-7, N-(4-Bromo-2-fluorophenyl)-2,2,2-trifluoroacetamide], the results for the chromatographic logP in data set [1] (setting [3]) and in data set [1] (setting [4]) were 2.73 and 2.51, respectively.
As for `Cc1cc(F)c(NC(=O)c2ccc(C(F)(F)F)cc2)cc1SCC(F)(F)F` [N-{2-Fluoro-4-methyl-5-[(2,2,2-trifluoroethyl)sulfanyl]phenyl}-4-(trifluoromethyl)benzamide], the chromatographic logP in data set [1] (setting [5]) came to 4.2; in data set [1] (setting [6]) it was 4.17.
On the same counts, the results for `Cc1cc(F)ccc1NC(=O)C(F)(F)F` [VI-2, 2,2,2-Trifluoro-N-(4-fluoro-2-methylphenyl)acetamide] are 2.2 and 2.19.
`O=C(Nc1cc(SSc2cc(NC(=O)C(F)(F)F)c(Cl)cc2Br)c(Br)cc1Cl)C(F)(F)F` [IV-3, N,N′-[Disulfanediylbis(4-bromo-6-chlorobenzene-3,1-diyl)]bis(2,2,2-trifluoroacetamide)]: the chromatographic logP in data set [1] (setting [5]) turned out to be 5.42.
For the compound `O=C(Nc1cc(SCC(F)(F)F)c(F)cc1Cl)C(F)(F)F` [III-7, N-{2-Chloro-4-fluoro-5-[(2,2,2-trifluoroethyl)sulfanyl]phenyl}-2,2,2-trifluoroacetamide], the results for the chromatographic logP in data set [1] (setting [5]) and in data set [1] (setting [6]) were 3.33 and 3.11, respectively.
In the case of `Cc1cc(F)c(SCC(F)(F)F)cc1NC(=O)C(F)(F)F` [III-4, 2,2,2-Trifluoro-N-{4-fluoro-2-methyl-5-[(2,2,2-trifluoroethyl)sulfanyl]phenyl}acetamide], the chromatographic logP in data set [1] (setting [5]) came to 3.16; in data set [1] (setting [6]) it was 3.1.
Consider `O=C(Nc1cc(SCC(F)(F)F)c(Br)cc1Cl)C(F)(F)F` [III-9, N-{4-Bromo-2-chloro-5-[(2,2,2-trifluoroethyl)sulfanyl]phenyl}-2,2,2-trifluoroacetamide], for which, in data set [1] (setting [7]), the “logP(HCOOH)” value was 3.46. Moreover, in data set [1] (setting [6]), the chromatographic logP amounted to 3.11.
Consider `Cc1cc(F)c(/N=C2\CCCN2c2ccccc2)cc1[S+]([O-])CC(F)(F)F` (stereo not drawn) [Ib-55, 2-Fluoro-4-methyl-N-[(2E)-1-phenylpyrrolidin-2-ylidene]-5-[(2,2,2-trifluoroethyl)sulfinyl]aniline], for which the chromatographic logP was found to be 1.27 in data set [1] (setting [5]) and 3.47 in data set [1] (setting [6]).
On to `O=C(Nc1cc(SSc2cc(NC(=O)C(F)(F)F)c(Br)cc2Br)c(Br)cc1Br)C(F)(F)F` [IV-4, N,N′-[Disulfanediylbis(4,6-dibromobenzene-3,1-diyl)]bis(2,2,2-trifluoroacetamide)], for which the chromatographic logP came to 5.62 in data set [1] (setting [5]) and 4.49 in data set [1] (setting [6]).
With `Cc1cc(F)c(N=C(N)c2ccccc2F)cc1SCC(F)(F)F` [Ia-143], the chromatographic logP in data set [1] (setting [5]) turned out to be 1.37; in data set [1] (setting [6]) it was 3.25.
As for `O=C(Nc1cc(SSc2cc(NC(=O)C(F)(F)F)c(Cl)cc2F)c(F)cc1Cl)C(F)(F)F` [IV-5, N,N′-[Disulfanediylbis(6-chloro-4-fluorobenzene-3,1-diyl)]bis(2,2,2-trifluoroacetamide)], the chromatographic logP in data set [1] (setting [5]) was determined as 4.45; in data set [1] (setting [6]), 3.81.
On the same counts, the results for `FC(F)(F)CSc1cc(N=C(Cl)C(F)(F)F)ccc1Cl` [N-{4-Chloro-3-[(2,2,2-trifluoroethyl)sulfanyl]phenyl}-2,2,2-trifluoroethanimidoyl chloride] are 4.77 and 4.73.
The matching figures for `O=C(Nc1cc(SSc2cc(NC(=O)C(F)(F)F)c(F)cc2Br)c(Br)cc1F)C(F)(F)F` [IV-7, N,N′-[Disulfanediylbis(4-bromo-6-fluorobenzene-3,1-diyl)]bis(2,2,2-trifluoroacetamide)]: 4.76 and 4.02.
For `Cc1cc(Cl)c(/N=C(\N)C(F)(F)C(F)(F)Cl)cc1[S+]([O-])CC(F)(F)F` (stereo not drawn) [Ib-31], in data set [2], the pest or weed control at 500 g/ha amounted to 100%.
For `Cc1cc(C)c(SCC(F)(F)F)cc1/N=C(\N)c1cnccn1` [Ia-190], in data set [2], the pest or weed control at 500 g/ha stood at 90%.
`Cc1cc(F)c(/N=C(/c2ccc(Cl)cc2)N2CCC(F)(F)CC2)cc1SCC(F)(F)F` [Ia-270]: the pest or weed control at 500 g/ha in data set [2] came to 90%.
As for `Cc1cc(F)c(/N=C(\c2ccc(C(F)(F)F)cc2)N(C)C)cc1SCC(F)(F)F` [Ia-242], the pest or weed control at 500 g/ha in data set [2] was 100%.
